In patent US20260176300A1, “N-ARYLPYRAZOLE NOD2 AGONISTS AS PROMOTERS OF IMMUNE CHECKPOINT INHIBITOR THERAPY” (THE SCRIPPS RESEARCH INSTITUTE, priority 2022, published 2026):

How the values were obtained:
[1] = system: human peripheral mononuclear blood cells (PBMCs); experiment: Cytokine release assay in primary human PBMCs; type: cell-based; settings: 10 μM, 24 h
Experimental: FIG. 3(A-H). NOD2 agonist TT030 activates cytokine production in vitro and improves immune checkpoint inhibitor treatment of tumor growth in vivo. A-D, Measurements of secreted cytokine levels from human peripheral mononuclear blood cells (PMBCs) treated with the indicated compounds for 24 h without or with lipopolysaccharide (LPS). E, Structures of TT030 and its enantiomer (TT030-ent). F, Activation of NOD1- and NOD2-expressing HEK-293T cells with the indicated compounds. C12-iE-DAP is a lipophilic version of the NOD1 agonist, iE-DAP. G, Growth profiles of B16-F10 subcutaneous tumors in wild-type C57BL/6 mice treated with 100 μg α-PD-L1 and 100 μg of the indicated compounds every other day starting at Day 7. H, Growth profiles of B16-F10 subcutaneous tumors in wild-type or Nod2^−/− C57BL/6 mice treated with 100 μg α-PD-L1 and 100 μg TT030 every other day starting at Day 7. Cytokine secretion assays and NOD activation assays were analyzed using a one-way ANOVA with Dunnett's multiple comparisons test compared to the DMSO control. Longitudinal tumor growth assays were analyzed using linear mixed-effects model analysis on the log transformed data. ns=not significant, *P<0.05, **P<0.01, ***P<0.001, ****P<0.0001.
FIG. 7(A-B). NOD2 agonist TT030 activates cytokine production in vitro. A-B, Measurements of secreted cytokine levels from human peripheral mononuclear blood cells (PMBCs) treated with the indicated compounds for 24 h without or with lipopolysaccharide (LPS). Cytokine secretion assays and NOD activation assays were analyzed using a one-way ANOVA with Dunnett's multiple comparisons test compared to the DMSO control. *P<0.05, **P<0.01.
Cytokine release assay. Human PMBCs were obtained from whole blood donated by healthy individuals via the Scripps Normal Blood Donor Service. Whole blood was diluted 1:1 with phosphate-buffered saline (PBS) containing 2% FBS and then layered onto Lymphoprep (STEMCELL Technologies, 07851) in SepMate-50 isolation tubes (STEMCELL Technologies, 85480). The discontinuous gradient was centrifuged for 10 min at 1,200×g, and mononuclear cells were removed by pouring off. Mononuclear cells were then resuspended in PBS+2% FBS and centrifuged for 3 min at 200×g twice before further use. Washed mononuclear cells were then aliquoted at 5×10^5 cells per well of a 48-well plate with 300 μL RPMI containing 10% FBS (complete RPMI). Cells were then diluted with 100 μL complete RPMI containing 50 μM of the test compound (10 μM final concentration). Then, 100 μL complete RPMI (-LPS) or 100 μL complete RPMI containing […] LPS (+LPS, 10 ng mL^−1 final concentration) was added. Cells were incubated overnight at 37° C. in 5% CO2, and conditioned medium was harvested and centrifuged for 5 min at 500×g to remove residual cells. Samples were used directly for cytokine analysis with the LEGENDPlex Human Inflammatory Panel 1 (BioLegend, 740809) according to the manufacturer's protocol. For analysis, 25 μL of the conditioned medium was used for −LPS samples, and 12.5 μL was used for the +LPS samples. On-bead ELISA readouts were measured using the standard PE and APC detection filter parameters on a ZE5 flow cytometer (Bio-Rad; 405, 488, 561, and 640 lasers) in the Scripps Research Flow Cytometry Core Facility. Raw data files were then imported into the LEGENDPlex Cloud Data Analysis software suite (BioLegend) and analyzed using the manufacturer's pre-set parameters.

[2] = system: intratumoral immune cells; experiment: Single cell transcriptomic profiling of intratumoral immune cells; type: in vivo, mice; settings: tumors treated with anti-PD-L1 and compound
Excerpt: N-arylpyrazole NOD2 agonist enhances intratumoral immune responses in vivo. The anti-tumor mechanism of action of the N-arylpyrazole NOD2 agonist in vivo was then further characterized. Infiltrating leukocytes from tumors treated with anti-PD-L1 and either TT030 or TT030-ent were harvested via cell sorting and subjected to single cell transcriptomic profiling (FIG. 4A and FIG. 8). After assignment of cell clusters using well-defined markers, the overall composition of intratumoral immune cells were examined by comparing the relative proportions of each cell cluster. […] In fact, overall expression of both Ifng and Gzmb were elevated in the TT030 sample compared to the enantiomer control (FIG. 9B), indicating heighted CD8^+ T cell activation and effector function. […] To better characterize changes to downstream signaling caused by TT030, differential gene expression and gene set enrichment analyses were performed.
FIG. 4(A-E). NOD2 agonist TT030 remodels intratumoral immune cell composition and elicits broad inflammatory signaling. A, Uniform manifold approximation and projection (UMAP) reduction of single intratumoral immune cells harvested from α-PD-L1 and TT030- and TT030-ent-treated tumors. B-C, Heatmap and quantification of the relative composition of intratumoral immune cell types divided by clusters. D, Quantification of the number of clusters that were enriched for individual Molecular Signature Database (MSigDB) hallmark gene sets. E, Bubble plot for enrichment of curated REACTOME gene sets involving NF-κB or interleukin 1 across cell clusters. For relative composition, absolute cell counts were analyzed by Pearson's chi-square test for count data with Holm's correction for multiple comparisons; exact P values are given. […] NOD activation assays were analyzed using a one-way ANOVA with Dunnett's multiple comparisons test compared to the DMSO control.
FIG. 9(A-B). […] QQ plots were analyzed using a two-sided Wilcoxon rank-sum test; exact P values are given.

SMILES	IFNγ levels ([1]; without or with LPS)	interleukin-1 beta (IL-1B) in the medium ([1]; without or with LPS)	tumor necrosis factor alpha (TNFα) in the medium ([1]; without or with LPS)	IL-12p70 secretion ([1]; with and without LPS)	IL-18 production ([1]; without or with LPS)	IL-23 production ([1]; without or with LPS)	Inflammatory, immune activation and metabolic pathways (IFNα, IFNγ response, NF-κB signaling), gene set enrichment [2]	Amount of T cell cluster expressing Cd8a, Ifng, Gzmb and Mki67 ([2]; vs. TT030-ent)	Overall expression of Ifng and Gzmb ([2]; vs. enantiomer control)
CC(=O)N[C@H]1C(O)O[C@H](CO)[C@@H](O)[C@@H]1O[C@H](C)C(=O)N[C@@H](C)C(=O)N[C@H](CCC(=O)O)C(N)=O (stereo partly drawn) [MDP, (4R)-4-((2S)-2-((2R)-2-(((3R,4R,5S,6R)-3-acetamido-2,5-dihydroxy-6-(hydroxymethyl)tetrahydro-2H-pyran-4-yl)oxy)propanamido)propanamido)-5-amino-5-oxopentanoic acid, reference compound]	increased	significant increase	significant increase						
CCOC(=O)CC[C@@H](NC(=O)[C@@H](NC(=O)c1c(C)nn(-c2cc[nH]c(=O)c2)c1C)C(C)C)C(=O)OCC [TT030, Diethyl (3,5-dimethyl-1-(2-oxo-1,2-dihydropyridin-4-yl)-1H-pyrazole-4-carbonyl)-L-valyl-D-glutamate]	increased	equivalent concentrations	equivalent concentrations	increase	production	production	upregulated	significant increase	elevated
